Test results taken from the supplement of paper PMC12076712.

Legend:
Assay in all cases: pIC50, kinobeads binding competition
UniProt P28482 = target: UniProt P28482
How it was run: (§1)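 Either living Jurkat cells (60 min at 37 °C, then lysis) or lysates (60 min at 4 °C) were treated with nine compound concentrations from a top of 30 μM, in 1:4 steps for cells and 1:5 steps for lysates. The lysates were from Jurkat cells or a 1:1:1:1 mix of HEK293, K-562, HepG2 and placenta. Kinobeads-bound proteins were digested and quantified by TMT10 LC-MS/MS. pIC50 was calculated by logistic dose-response fitting (R drc package) of fold changes relative to vehicle, in biological duplicates.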

MAPK14 = MAPK14 (UniProt Q16539)
How it was run: as §1

UniProt Q9BUB5 = target: UniProt Q9BUB5
Sequence of UniProt Q9BUB5 (Q9BUB5 whole entry, looked up): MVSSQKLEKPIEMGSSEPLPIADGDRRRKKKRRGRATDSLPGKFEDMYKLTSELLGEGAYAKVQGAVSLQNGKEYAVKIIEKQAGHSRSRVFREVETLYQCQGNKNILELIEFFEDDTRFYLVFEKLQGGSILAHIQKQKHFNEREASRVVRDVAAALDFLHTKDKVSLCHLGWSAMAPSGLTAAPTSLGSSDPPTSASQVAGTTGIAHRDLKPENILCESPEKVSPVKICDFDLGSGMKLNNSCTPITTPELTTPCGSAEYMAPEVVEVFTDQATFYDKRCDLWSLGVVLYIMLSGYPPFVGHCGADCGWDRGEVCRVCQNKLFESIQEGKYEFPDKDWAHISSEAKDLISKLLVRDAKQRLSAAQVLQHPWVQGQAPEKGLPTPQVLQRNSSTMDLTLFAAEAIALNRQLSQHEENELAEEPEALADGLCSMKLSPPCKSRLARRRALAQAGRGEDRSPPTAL
How it was run: as §1

CDK2 = CDK2 (UniProt P24941)
How it was run: as §1

SLK = SLK (UniProt Q9H2G2)
How it was run: as §1

UniProt Q15418 = target: UniProt Q15418
How it was run: as §1

PHKG2 = target: T1, PHKG2 (UniProt P15735)
T1 sequence (whole entry): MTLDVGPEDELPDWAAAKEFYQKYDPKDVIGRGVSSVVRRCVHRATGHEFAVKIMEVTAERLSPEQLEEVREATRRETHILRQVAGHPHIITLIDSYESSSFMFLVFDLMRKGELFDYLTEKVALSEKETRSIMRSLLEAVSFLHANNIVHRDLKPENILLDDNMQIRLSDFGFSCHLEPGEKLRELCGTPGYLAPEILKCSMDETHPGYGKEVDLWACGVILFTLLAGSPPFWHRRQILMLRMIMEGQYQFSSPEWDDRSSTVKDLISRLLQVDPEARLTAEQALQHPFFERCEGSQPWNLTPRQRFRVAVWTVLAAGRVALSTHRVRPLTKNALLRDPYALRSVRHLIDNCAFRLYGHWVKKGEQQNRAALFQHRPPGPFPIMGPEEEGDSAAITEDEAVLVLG
How it was run: as §1

TESK2 = TESK2 (UniProt Q96S53)
Sequence of TESK2 (Q96S53 whole entry, looked up): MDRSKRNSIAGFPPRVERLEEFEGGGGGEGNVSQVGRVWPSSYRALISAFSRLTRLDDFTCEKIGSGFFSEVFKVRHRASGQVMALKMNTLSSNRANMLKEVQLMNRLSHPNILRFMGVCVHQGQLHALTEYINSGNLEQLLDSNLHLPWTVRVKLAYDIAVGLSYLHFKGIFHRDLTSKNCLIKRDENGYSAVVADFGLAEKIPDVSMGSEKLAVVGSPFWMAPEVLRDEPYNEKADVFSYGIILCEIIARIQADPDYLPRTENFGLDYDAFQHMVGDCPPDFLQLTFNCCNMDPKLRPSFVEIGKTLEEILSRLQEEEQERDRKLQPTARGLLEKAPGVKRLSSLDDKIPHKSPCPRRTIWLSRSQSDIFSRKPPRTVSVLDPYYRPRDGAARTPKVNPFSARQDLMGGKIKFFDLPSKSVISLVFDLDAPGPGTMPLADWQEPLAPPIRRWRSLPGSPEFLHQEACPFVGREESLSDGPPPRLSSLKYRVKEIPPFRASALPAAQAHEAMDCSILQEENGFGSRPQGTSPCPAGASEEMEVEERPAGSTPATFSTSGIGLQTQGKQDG
How it was run: as §1

UniProt P27448 = target: UniProt P27448
Sequence of UniProt P27448 (P27448 whole entry, looked up): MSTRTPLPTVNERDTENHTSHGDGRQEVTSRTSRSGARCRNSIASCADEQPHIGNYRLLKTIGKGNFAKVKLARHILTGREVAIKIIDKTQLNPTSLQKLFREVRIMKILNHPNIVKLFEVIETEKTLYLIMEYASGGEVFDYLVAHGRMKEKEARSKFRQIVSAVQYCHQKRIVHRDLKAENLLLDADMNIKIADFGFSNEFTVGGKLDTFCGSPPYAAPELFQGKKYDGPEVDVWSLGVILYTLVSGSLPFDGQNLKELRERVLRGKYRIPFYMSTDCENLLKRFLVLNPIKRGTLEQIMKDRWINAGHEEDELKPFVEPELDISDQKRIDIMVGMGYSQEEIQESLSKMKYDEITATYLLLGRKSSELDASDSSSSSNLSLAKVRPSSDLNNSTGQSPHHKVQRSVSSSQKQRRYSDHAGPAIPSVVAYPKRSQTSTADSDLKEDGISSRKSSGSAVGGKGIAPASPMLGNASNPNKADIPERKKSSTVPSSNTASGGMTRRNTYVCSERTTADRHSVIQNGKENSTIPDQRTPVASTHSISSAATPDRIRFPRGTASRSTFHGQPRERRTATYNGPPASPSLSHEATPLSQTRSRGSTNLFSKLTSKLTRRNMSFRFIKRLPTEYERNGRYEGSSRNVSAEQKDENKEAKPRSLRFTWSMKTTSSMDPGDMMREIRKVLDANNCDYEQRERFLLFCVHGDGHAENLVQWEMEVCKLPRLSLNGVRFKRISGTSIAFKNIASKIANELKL
How it was run: as §1

EPHA3 = target: T2, EPHA3 (UniProt P29320)
T2 sequence (whole entry): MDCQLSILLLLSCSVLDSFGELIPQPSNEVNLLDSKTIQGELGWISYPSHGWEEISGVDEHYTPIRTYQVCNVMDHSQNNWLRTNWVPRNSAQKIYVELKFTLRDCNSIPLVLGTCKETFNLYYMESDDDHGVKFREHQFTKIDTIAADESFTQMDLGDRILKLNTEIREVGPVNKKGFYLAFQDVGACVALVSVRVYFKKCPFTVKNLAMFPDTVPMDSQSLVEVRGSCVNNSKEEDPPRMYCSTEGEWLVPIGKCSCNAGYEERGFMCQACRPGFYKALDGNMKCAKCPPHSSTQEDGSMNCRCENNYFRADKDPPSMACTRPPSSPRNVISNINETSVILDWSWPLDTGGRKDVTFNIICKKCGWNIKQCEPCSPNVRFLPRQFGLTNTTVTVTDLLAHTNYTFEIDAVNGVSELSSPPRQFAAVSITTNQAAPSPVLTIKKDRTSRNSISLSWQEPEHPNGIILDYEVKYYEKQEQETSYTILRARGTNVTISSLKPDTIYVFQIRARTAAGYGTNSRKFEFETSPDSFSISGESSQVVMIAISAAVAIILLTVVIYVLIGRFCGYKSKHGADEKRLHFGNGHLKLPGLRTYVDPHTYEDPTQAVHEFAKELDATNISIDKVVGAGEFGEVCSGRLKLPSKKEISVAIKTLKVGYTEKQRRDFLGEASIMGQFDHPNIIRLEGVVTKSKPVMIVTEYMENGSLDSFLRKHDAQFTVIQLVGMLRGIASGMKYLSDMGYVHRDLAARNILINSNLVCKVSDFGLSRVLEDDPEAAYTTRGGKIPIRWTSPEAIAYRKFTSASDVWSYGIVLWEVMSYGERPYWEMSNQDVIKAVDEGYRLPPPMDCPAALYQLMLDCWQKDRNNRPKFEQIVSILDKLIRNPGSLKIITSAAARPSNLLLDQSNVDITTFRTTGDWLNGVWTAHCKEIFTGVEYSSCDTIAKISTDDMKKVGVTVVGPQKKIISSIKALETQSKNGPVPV
How it was run: as §1

WEE1 = WEE1 (UniProt P30291)
Sequence of WEE1 (P30291 whole entry, looked up): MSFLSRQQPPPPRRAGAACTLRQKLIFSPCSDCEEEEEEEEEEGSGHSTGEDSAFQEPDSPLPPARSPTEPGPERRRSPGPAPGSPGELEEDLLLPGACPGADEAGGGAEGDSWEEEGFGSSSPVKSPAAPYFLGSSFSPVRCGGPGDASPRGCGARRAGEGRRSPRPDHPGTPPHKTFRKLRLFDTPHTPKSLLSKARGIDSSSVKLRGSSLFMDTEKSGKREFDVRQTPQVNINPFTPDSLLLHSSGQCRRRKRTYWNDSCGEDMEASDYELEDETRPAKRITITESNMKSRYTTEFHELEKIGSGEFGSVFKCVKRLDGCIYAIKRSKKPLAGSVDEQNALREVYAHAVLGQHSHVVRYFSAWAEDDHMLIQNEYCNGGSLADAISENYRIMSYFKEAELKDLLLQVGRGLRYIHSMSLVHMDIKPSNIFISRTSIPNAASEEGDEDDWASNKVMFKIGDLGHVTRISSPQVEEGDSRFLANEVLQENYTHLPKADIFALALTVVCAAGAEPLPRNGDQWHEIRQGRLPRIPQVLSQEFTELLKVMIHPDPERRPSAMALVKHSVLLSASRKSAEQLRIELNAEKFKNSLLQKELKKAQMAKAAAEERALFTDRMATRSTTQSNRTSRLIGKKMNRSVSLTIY
How it was run: as §1

UniProt Q9BQI3 = target: UniProt Q9BQI3
How it was run: as §1

UniProt Q5TCX8 = target: UniProt Q5TCX8
Sequence of UniProt Q5TCX8 (Q5TCX8 whole entry): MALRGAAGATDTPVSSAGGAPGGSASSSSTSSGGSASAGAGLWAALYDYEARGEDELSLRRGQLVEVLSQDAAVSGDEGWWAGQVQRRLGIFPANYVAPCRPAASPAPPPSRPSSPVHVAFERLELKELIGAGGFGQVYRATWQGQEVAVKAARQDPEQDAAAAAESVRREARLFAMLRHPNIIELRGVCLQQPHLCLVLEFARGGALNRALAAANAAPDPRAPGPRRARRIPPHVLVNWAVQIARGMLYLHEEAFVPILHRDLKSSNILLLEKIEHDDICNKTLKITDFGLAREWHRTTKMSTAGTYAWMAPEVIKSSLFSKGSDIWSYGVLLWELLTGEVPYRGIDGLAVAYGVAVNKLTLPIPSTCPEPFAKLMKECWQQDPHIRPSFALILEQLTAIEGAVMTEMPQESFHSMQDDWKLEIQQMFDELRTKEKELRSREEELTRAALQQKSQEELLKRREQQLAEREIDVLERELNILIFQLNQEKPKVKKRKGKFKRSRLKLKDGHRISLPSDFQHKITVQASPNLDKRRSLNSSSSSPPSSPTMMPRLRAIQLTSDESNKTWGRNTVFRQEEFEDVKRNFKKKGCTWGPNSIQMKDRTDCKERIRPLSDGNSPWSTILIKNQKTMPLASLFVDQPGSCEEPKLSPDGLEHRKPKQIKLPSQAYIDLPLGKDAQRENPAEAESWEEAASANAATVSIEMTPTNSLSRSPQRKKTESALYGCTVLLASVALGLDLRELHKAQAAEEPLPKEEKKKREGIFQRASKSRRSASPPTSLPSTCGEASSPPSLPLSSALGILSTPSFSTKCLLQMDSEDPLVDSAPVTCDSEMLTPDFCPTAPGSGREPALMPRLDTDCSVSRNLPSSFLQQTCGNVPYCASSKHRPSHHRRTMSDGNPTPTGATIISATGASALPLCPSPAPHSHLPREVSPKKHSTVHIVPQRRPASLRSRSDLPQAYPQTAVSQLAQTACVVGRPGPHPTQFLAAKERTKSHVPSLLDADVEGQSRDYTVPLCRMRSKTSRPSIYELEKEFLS
How it was run: as §1

ICK = target: T3, ICK (UniProt Q9UPZ9)
T3 sequence (whole entry): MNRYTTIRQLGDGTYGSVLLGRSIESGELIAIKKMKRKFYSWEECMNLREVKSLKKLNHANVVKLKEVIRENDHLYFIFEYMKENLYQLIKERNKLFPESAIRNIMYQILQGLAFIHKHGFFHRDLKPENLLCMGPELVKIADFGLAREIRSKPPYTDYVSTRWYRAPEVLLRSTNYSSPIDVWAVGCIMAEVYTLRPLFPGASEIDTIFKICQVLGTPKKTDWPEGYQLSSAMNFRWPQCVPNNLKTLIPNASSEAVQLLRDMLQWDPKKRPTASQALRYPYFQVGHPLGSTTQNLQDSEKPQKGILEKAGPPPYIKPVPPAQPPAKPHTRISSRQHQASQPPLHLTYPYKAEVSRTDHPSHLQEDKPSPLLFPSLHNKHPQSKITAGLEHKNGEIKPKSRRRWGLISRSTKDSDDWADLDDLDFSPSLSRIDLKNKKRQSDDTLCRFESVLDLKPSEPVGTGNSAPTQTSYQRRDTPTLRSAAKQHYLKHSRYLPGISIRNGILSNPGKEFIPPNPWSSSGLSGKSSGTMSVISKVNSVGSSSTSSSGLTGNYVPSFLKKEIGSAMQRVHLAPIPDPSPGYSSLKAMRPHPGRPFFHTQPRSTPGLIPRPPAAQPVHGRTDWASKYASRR
How it was run: as §1

HIPK3 = HIPK3 (UniProt Q9H422)
Sequence of HIPK3 (Q9H422 whole entry, looked up): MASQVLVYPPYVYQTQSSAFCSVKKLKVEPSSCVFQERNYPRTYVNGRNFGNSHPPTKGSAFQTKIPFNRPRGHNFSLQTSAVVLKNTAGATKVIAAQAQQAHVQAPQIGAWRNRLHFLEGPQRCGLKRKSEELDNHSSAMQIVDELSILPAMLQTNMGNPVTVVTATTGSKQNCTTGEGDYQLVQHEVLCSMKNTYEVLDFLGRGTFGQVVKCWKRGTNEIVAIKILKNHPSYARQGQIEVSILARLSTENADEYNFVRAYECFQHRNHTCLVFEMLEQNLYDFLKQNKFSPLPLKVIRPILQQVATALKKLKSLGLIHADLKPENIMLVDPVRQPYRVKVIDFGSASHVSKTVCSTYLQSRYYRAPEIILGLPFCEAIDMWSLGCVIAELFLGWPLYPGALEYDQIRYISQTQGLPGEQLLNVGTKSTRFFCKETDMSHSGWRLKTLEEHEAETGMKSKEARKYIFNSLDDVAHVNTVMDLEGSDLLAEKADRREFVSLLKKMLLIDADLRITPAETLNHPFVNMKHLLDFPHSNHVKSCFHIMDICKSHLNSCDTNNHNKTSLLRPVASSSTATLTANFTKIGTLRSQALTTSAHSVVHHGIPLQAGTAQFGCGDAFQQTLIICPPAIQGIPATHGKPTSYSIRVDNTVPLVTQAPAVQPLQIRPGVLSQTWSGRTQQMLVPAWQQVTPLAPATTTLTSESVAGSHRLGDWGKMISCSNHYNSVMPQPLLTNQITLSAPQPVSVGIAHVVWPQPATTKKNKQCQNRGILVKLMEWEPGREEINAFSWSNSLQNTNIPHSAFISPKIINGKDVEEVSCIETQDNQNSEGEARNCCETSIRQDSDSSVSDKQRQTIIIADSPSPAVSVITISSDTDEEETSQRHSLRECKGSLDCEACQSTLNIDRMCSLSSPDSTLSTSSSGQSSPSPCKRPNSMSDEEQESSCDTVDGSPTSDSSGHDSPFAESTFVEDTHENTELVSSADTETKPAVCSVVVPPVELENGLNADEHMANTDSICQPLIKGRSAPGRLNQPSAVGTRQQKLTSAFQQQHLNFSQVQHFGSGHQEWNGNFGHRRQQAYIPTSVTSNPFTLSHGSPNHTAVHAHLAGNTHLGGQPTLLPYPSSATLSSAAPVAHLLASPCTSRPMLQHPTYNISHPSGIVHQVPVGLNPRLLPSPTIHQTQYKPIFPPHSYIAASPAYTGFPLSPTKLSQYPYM
How it was run: as §1

Sequence of UniProt P28482 (P28482 whole entry): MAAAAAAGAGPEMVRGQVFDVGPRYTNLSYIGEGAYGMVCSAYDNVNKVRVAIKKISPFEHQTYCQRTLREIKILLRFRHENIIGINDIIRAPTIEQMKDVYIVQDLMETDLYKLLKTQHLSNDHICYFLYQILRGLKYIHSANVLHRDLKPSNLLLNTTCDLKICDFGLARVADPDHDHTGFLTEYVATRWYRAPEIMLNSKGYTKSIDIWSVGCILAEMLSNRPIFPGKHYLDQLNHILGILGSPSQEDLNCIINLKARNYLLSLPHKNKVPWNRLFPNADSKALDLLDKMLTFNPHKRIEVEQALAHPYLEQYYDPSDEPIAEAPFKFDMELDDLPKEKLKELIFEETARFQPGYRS

O=C(NCCNC(=O)c1cc(Nc2cc(C3CC3)[nH]n2)nc(N2CCN(Cc3ccc(S(=O)(=O)F)cc3)CC2)n1)OC1CC/C=C/CCC1 (stereo not given)
pIC50 (UniProt P28482; cell material: Jurkat cells): < 4.52
pIC50 (UniProt P28482; cell material: Jurkat lysate): < 4.52
pIC50 (UniProt P28482; cell material: Lysate mix): < 4.52
pIC50 (MAPK14; cell material: Jurkat cells): < 4.52
pIC50 (MAPK14; cell material: Jurkat lysate): < 4.52
pIC50 (MAPK14; cell material: Lysate mix): < 4.52
pIC50 (UniProt Q9BUB5; cell material: Jurkat lysate): < 4.52
pIC50 (UniProt Q9BUB5; cell material: Lysate mix): < 4.52
pIC50 (CDK2; cell material: Jurkat cells): 6.45
pIC50 (CDK2; cell material: Jurkat lysate): 5.06
pIC50 (CDK2; cell material: Lysate mix): 5.19
pIC50 (SLK; cell material: Jurkat cells): < 4.52
pIC50 (SLK; cell material: Jurkat lysate): < 4.52
pIC50 (SLK; cell material: Lysate mix): < 4.52
pIC50 (UniProt Q15418; cell material: Jurkat cells): 5.78
pIC50 (UniProt Q15418; cell material: Jurkat lysate): < 4.52
pIC50 (PHKG2; cell material: Jurkat cells): < 4.52
pIC50 (PHKG2; cell material: Jurkat lysate): < 4.52
pIC50 (PHKG2; cell material: Lysate mix): < 4.52
pIC50 (TESK2; cell material: Jurkat lysate): < 4.52
pIC50 (TESK2; cell material: Lysate mix): < 4.52
pIC50 (UniProt P27448; cell material: Jurkat lysate): < 4.52
pIC50 (UniProt P27448; cell material: Lysate mix): < 4.52
pIC50 (EPHA3; cell material: Jurkat cells): < 4.52
pIC50 (EPHA3; cell material: Jurkat lysate): < 4.52
pIC50 (EPHA3; cell material: Lysate mix): < 4.52
pIC50 (WEE1; cell material: Jurkat lysate): < 4.52
pIC50 (WEE1; cell material: Lysate mix): < 4.52
pIC50 (UniProt Q9BQI3; cell material: Jurkat cells): < 4.52
pIC50 (UniProt Q9BQI3; cell material: Jurkat lysate): < 4.52
pIC50 (UniProt Q9BQI3; cell material: Lysate mix): < 4.52
pIC50 (UniProt Q5TCX8; cell material: Jurkat cells): 4.93
pIC50 (UniProt Q5TCX8; cell material: Jurkat lysate): < 4.52
pIC50 (UniProt Q5TCX8; cell material: Lysate mix): < 4.52
pIC50 (ICK; cell material: Jurkat cells): 6.56
pIC50 (ICK; cell material: Jurkat lysate): 5.31
pIC50 (ICK; cell material: Lysate mix): 5.38
pIC50 (HIPK3; cell material: Jurkat cells): 5.22
pIC50 (HIPK3; cell material: Jurkat lysate): < 4.52
pIC50 (HIPK3; cell material: Lysate mix): < 4.52

CCNC(=O)c1cc(Nc2cc(C)[nH]n2)nc(N2CCN(Cc3ccc(S(=O)(=O)F)cc3)CC2)n1
pIC50 (UniProt P28482; cell material: Lysate mix): < 4.52
pIC50 (MAPK14; cell material: Lysate mix): < 4.52
pIC50 (UniProt Q9BUB5; cell material: Lysate mix): < 4.52
pIC50 (CDK2; cell material: Lysate mix): 6.47
pIC50 (SLK; cell material: Lysate mix): < 4.52
pIC50 (UniProt Q15418; cell material: Lysate mix): 5.04
pIC50 (PHKG2; cell material: Lysate mix): < 4.52
pIC50 (TESK2; cell material: Lysate mix): < 4.52
pIC50 (UniProt P27448; cell material: Lysate mix): < 4.52
pIC50 (EPHA3; cell material: Lysate mix): < 4.52
pIC50 (WEE1; cell material: Lysate mix): < 4.52
pIC50 (UniProt Q9BQI3; cell material: Lysate mix): < 4.52
pIC50 (UniProt Q5TCX8; cell material: Lysate mix): < 4.52
pIC50 (ICK; cell material: Lysate mix): 5.64
pIC50 (HIPK3; cell material: Lysate mix): 4.62

CCNC(=O)c1cc(Nc2cc(C3CC3)[nH]n2)nc(N2CCN(Cc3ccc(S(=O)(=O)F)cc3)CC2)n1
pIC50 (UniProt P28482; cell material: Lysate mix): < 4.52
pIC50 (MAPK14; cell material: Lysate mix): < 4.52
pIC50 (UniProt Q9BUB5; cell material: Lysate mix): < 4.52
pIC50 (CDK2; cell material: Lysate mix): 6.29
pIC50 (SLK; cell material: Lysate mix): < 4.52
pIC50 (UniProt Q15418; cell material: Lysate mix): 5.37
pIC50 (PHKG2; cell material: Lysate mix): < 4.52
pIC50 (TESK2; cell material: Lysate mix): < 4.52
pIC50 (UniProt P27448; cell material: Lysate mix): < 4.52
pIC50 (EPHA3; cell material: Lysate mix): < 4.52
pIC50 (WEE1; cell material: Lysate mix): < 4.52
pIC50 (UniProt Q9BQI3; cell material: Lysate mix): 5.06
pIC50 (UniProt Q5TCX8; cell material: Lysate mix): 4.65
pIC50 (ICK; cell material: Lysate mix): 6.46
pIC50 (HIPK3; cell material: Lysate mix): 5.74
